What was measured:
[1] = in vivo FLX pharmacokinetic study and in vivo imaging of model drug distribution after delivery by microburs; details: after delivery by MBs
[2] = release of nanoparticles / SSRI from microbur and mesoporous silica nanoparticles; assay type: physicochemical
[3] = in vivo

O=C1OC2(c3ccc(O)cc3Oc3cc(O)ccc32)c2ccccc21 [Fluorescein]
model drug distribution (in vivo imaging system) [1]: selective dispersion of drug in the gut

CNCCC(Oc1ccc(C(F)(F)F)cc1)c1ccccc1 (stereo not shown) [Fluoxetine, fluoxetine]
FLX release profile from MB ([2]; MB with different structures): sustainable FLX release profile | release of SSRI from MSN ([2]; from a 42 nm-sized MSN): controlled release | dispersion of FLX in the intestine [3]: local dispersion of FLX on small intestine epithelium
